Reference: PubChem BioAssay (NCI)
Several values for one entry are separate records, joined by “and”; a condition that tells them apart may be missing. Identical values can stand only once.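 Assay format: 96-well plates, 48-hour exposure. GI50 marks 50% less growth. TGI denotes the concentration required for complete inhibition of growth.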

System: MDA-MB-468 breast
Experiment: growth of human tumour cells (NCI), 48 h

Row | Compound | GI50 | TGI
1 | N#CN1CC[C@H](C(=O)Nc2cc3cc(C(N)=O)ccc3cn2)C1 | < 0.0146 µM | 0.0289 µM
2 | Nc1nc(N)c2cc(Sc3cccc(C(F)(F)F)c3)ccc2n1 | 1.02 µM | 2.55 µM
3 | CCOC(=O)/C=C/C(=O)[C@H](CC(C)C)NC(=O)[C@H](Cc1ccccc1)NC(=O)OCc1ccccc1 | 2.36 µM | 5.07 µM
4 | c1ccc([As]=[As]c2ccccc2)cc1 (centres undefined) | 0.541 µM | 2.31 µM
5 | Nc1nc(=O)n([C@@H]2CS[C@H](CO)O2)cc1F | > 100 µM | > 100 µM
6 | Cc1ccc(NCCN(C)C)c2c(=O)c3ccccc3sc12 | 1.67 µM | 3.26 µM
7 | COc1cc2c(=O)n(CCN(C)C)c3c4cc5c(cc4ccc3c2cc1OC)OCO5 | 0.115 µM | 0.303 µM
8 | Cc1ccc(-c2nc(-c3cn(C)c4ncccc34)cs2)cc1 | 2.66 µM | 9.92 µM
9 | COc1ccccc1NS(=O)(=O)c1ccc2oc(SC(C)C)nc2c1 | 2.38 µM | 17.6 µM
10 | NC(=Nc1ccc(N)cc1)C(N)=Nc1ccc(N)cc1 | > 100 µM | > 100 µM
11 | O=C(Nc1cc(Oc2cc(F)c(NC(=O)C3(C(=O)Nc4ccc(F)cc4)CC3)cc2F)ccn1)C1CC1 | 3.17 µM | 6.14 µM
12 | CCCCCCCC(=O)OCC(=O)[C@]1(O)Cc2c(O)c3c(c(O)c2[C@@H](OC2CC(N)C(O)C(C)O2)C1)C(=O)c1c(OC)cccc1C3=O (some centres undefined) | 0.0398 µM | 0.301 µM
13 | Cc1cc(Nc2cc(N3CCN(C)CC3)nc(Sc3ccc(NC(=O)C4CC4)cc3)n2)n[nH]1 | 0.24 µM | > 10 µM
14 | COc1cc(C2C3=C(COC3=O)N(CCO)c3cc4c(cc32)OCO4)cc(OC)c1O (centres undefined) | 0.819 µM | 2.62 µM
15 | COc1ccc(Cn2cc3c(c2-c2ccccc2)CCc2cnoc2-3)cc1N | 0.039 µM | 0.385 µM
16 | CC(=O)c1cc(C(=O)c2ccc3c(c2)Sc2ccccc2N3)c2c(C)cccn12 | 0.175 µM | > 96 µM
17 | Cc1cnc(Nc2ccc(N3CCN(C)CC3)cc2)nc1Nc1ccc(Cl)c(NS(=O)(=O)C(C)(C)C)c1 | 0.153 µM | 2.2 µM
18 | CN1CCN(CCOc2cc(OC3CCOCC3)c3c(Nc4c(Cl)ccc5c4OCO5)ncnc3c2)CC1 | 0.773 µM and 0.548 µM | 3.49 µM and 7.54 µM
19 | C[C@@H]1COCCN1c1cc(C2([S@@](C)(=N)=O)CC2)nc(-c2ccnc3[nH]ccc23)n1 | 2.73 µM | 25.6 µM
20 | CCOC(=O)c1c(NCC(=O)Nc2cccc([N+](=O)[O-])c2)sc2c1CCCC2 | 0.333 µM | 1.43 µM
21 | Cc1c(C(N)=O)sc2c1c(=O)n(Cc1ccccc1)c1nnc(-c3ccc(Br)cc3)n21 | 2.04 µM | 6.94 µM
22 | C=C1C(=O)O[C@H]2[C@H]1CC/C(COC(=O)NCCc1c[nH]c3ccc(Cl)cc13)=C\CC[C@@]1(C)O[C@@H]21 | 1.65 µM | 3.31 µM
23 | CCOC(=O)c1cnn2c3ccccc3n(S(=O)(=O)c3ccc(OC)cc3)c12 | 0.324 µM | > 100 µM

Row | Compound | GI50 | TGI
24 | O=C(CC(=O)c1cccc(Cl)c1)c1cccc(Cl)c1 | 1.77 µM | 8.76 µM
25 | ClCc1cccc(CSc2ncnc3c2ncn3Cc2cccc(CCl)c2)c1 | 1.3 µM | 2.85 µM
26 | CCS(=O)(=O)c1ccc(OC)c(Nc2ncc(-c3ccccc3Cl)o2)c1 | 6.53 µM | 19.6 µM
27 | COc1cc(/C=C/c2cc(/C=C/c3ccc(O)c(OC)c3)n(C(=O)Nc3ccc(Cl)cc3)n2)ccc1O | 0.31 µM | 1.82 µM
28 | NC(=S)N=Nc1c(O)c2ccccc2c2ccccc12 | 44.3 µM | > 100 µM
29 | COc1ccc(/C=C\c2cc(OC)c(OC)c(OC)c2)cc1OCC(=O)Nc1ccc2nc(C)sc2c1 | 2.39 µM | 14 µM
30 | CCOC(=O)c1ccc2c(c1)[n+](=O)c(C(C)=O)c(C(F)(F)F)n2[O-] | 1.59 µM | 3.29 µM
31 | COc1ccc(C2C=C(c3ccc(Cl)cc3)N=C3SC=C(C)N32)c(Br)c1 (centres undefined) | 1.91 µM | 6.13 µM
32 | O=C(C[P+](c1ccccc1)(c1ccccc1)c1ccccc1)C[P+](c1ccccc1)(c1ccccc1)c1ccccc1 | 0.165 µM | 0.508 µM
33 | COc1cccc(/C(C)=N/NC(=O)CSc2nc3ccccc3c(=O)n2CCc2ccc(S(N)(=O)=O)cc2)c1 | 3.16 µM | 8.76 µM
34 | O=C(NCCNc1nccc(-c2c(-c3cccc(O)c3)nc3sccn23)n1)c1ccccc1 | 3.6 µM | 28.7 µM
35 | O=C(Nc1ccccc1O)c1ccc(NS(=O)(=O)c2cccc3cccnc23)cc1 | 0.679 µM | 3.75 µM
36 | CN1CCN(Cc2ccc3c(NNC(=O)c4ccccc4)nc4cc(F)ccc4n23)CC1 | 0.237 µM | 1.65 µM
37 | Cn1cc(-c2nn3cc(-c4ccncc4)nc3s2)c2cc(Cl)ccc21 | 2.19 µM | 7.84 µM
38 | Cc1cc(Cl)ccc1Nc1nc(C(F)(F)F)ccc1C(=O)N/N=C/c1ccccc1Cl | 1.88 µM | > 100 µM
39 | C#COc1cccc(Nc2ncnc3cc(NC(=O)[C@H](C)Cl)ccc23)c1 | 11.7 µM | 61 µM
40 | O=C(/C=C/C12c3ccccc3C(c3ccccc31)C1C(=O)NC(=O)C12)c1ccc(Cl)cc1 (centres undefined) | 1.7 µM | 3.47 µM
41 | COc1cccc(C2C3=C(COC3=O)N(CCO)c3cc4c(cc32)OCO4)c1 (centres undefined) | 0.131 µM | –
42 | Cc1ccc(-c2nc([P+](c3ccccc3)(c3ccccc3)c3ccccc3)c(Nc3ccccc3)o2)cc1 | 0.232 µM | 0.719 µM
43 | O=S(=O)(Nc1ccc(F)c(Cl)c1)c1ccc(-c2cnc(C3CC3)o2)cc1 | 0.0982 µM | 1.63 µM
44 | CNS(=O)(=O)OCC1OC(n2cnc3c(N)ncnc32)C(O)C1O (centres undefined) | 28.9 µM | > 100 µM
45 | COc1cc(NCCN=C(N)NC(N)=NC(C)C)c2ncccc2c1 | 0.162 µM | 0.603 µM
